≈ marks a conversion by molar mass, not a printed value.
Experiments:
[1] = Stability in human liver microsomes at 1 uM pretreated for 10 mins followed by NADPH addition after 60 mins by LC/MS analysis relative to hepatic blood flow; type: ADME, microsome; conditions: read-out: Stability
hERG (KCNH2) [2] = molecular target: T1, hERG (KCNH2) (Homo sapiens, UniProt Q12809); assay: Inhibition of human ERG expressed in CHO cells at 13 uM at -70mV holding potential measured after 300 secs by IonWorks electrophysiology method relative to control; type: cell-based; conditions: CHO cells expressing human ERG
[3] = molecular target: T2, Arachidonate 5-lipoxygenase-activating protein (Homo sapiens, UniProt P20292); assay: Inhibition of FLAP in calcimycin-stimulated human whole blood assessed as reduction in LTB4 production pretreated for 15 mins followed by calcimycin addition after 30 mins by ELISA
T2 sequence (P20292 whole entry): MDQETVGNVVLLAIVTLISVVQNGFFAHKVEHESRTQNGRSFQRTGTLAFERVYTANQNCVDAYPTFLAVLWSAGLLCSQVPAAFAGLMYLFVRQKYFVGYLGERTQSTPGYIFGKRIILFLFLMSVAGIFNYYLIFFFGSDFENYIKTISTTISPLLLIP

[4] = molecular target: T2, Arachidonate 5-lipoxygenase-activating protein; assay: Displacement of [125I]-L-691831 from human FLAP expressed in Sf9 cell membranes after 2 hrs by Topcount method
[5] = Aqueous kinetic solubility of the compound at pH 7.4; type: physicochemical; conditions: for solubility kinetic: aqueous, read-out: Kinetic_solubility; for Kinetic_solubility: buffer
[6] = Mean residence time in Wistar rat at 1 mg/kg, iv by HPLC-MS/MS analysis; type: ADME, organism-based; conditions: in vivo
[7] = Volume of distribution at steady state in Wistar rat at 1 mg/kg, iv by HPLC-MS/MS analysis; type: ADME, organism-based; conditions: in vivo, read-out: Vdss
hERG (KCNH2) [8] = molecular target: T1, hERG (KCNH2); assay: Inhibition of human ERG expressed in HEK293 cells at 34 uM by whole-cell patch clamp method relative to control; type: cell-based; conditions: HEK293 cells expressing human ERG
Rattus norvegicus [9] = assay: Clearance in Wistar rat at 1 mg/kg, iv by HPLC-MS/MS analysis relative to hepatic blood flow; type: ADME, organism-based; conditions: in vivo
[10] = Aqueous equilibrium solubility in citric acid/disodium phosphate buffer at pH 6.8 at 1 uM after 24 hrs by HPLC method; type: physicochemical; conditions: for solubility thermodynamic at 24 h, 1 µM: citric acid/disodium phosphate buffer, pH 6.8
[11] = Oral bioavailability in Wistar rat at 3 mg/kg by HPLC-MS/MS analysis; type: ADME, organism-based; conditions: in vivo
hERG (KCNH2) [12] = molecular target: T1, hERG (KCNH2); assay: Inhibition of human ERG expressed in CHO cells at 34 uM at -70mV holding potential measured after 300 secs by IonWorks electrophysiology method relative to control; type: cell-based; conditions: CHO cells expressing human ERG
hERG (KCNH2) [13] = molecular target: T1, hERG (KCNH2); assay: Inhibition of human ERG expressed in CHO cells at 10 uM at -70mV holding potential measured after 300 secs by IonWorks electrophysiology method relative to control; type: cell-based; conditions: CHO cells expressing human ERG
[14] = Clearance in human hepatocytes at 1 uM measured after 1 hr by LC/MS analysis relative to hepatic blood flow; type: ADME, cell-based, Hepatocyte
hERG (KCNH2) [15] = molecular target: T1, hERG (KCNH2); assay: Inhibition of human ERG expressed in CHO cells at 42 uM at -70mV holding potential measured after 300 secs by IonWorks electrophysiology method relative to control; type: cell-based; conditions: CHO cells expressing human ERG
hERG (KCNH2) [16] = molecular target: T1, hERG (KCNH2); assay: Inhibition of human ERG expressed in HEK293 cells at 30 uM by whole-cell patch clamp method relative to control; type: cell-based; conditions: HEK293 cells expressing human ERG
[17] = Mean residence time in Sprague-Dawley rat at 1 mg/kg, iv by HPLC-MS/MS analysis; type: ADME, organism-based; conditions: in vivo
[18] = Volume of distribution at steady state in Sprague-Dawley rat at 1 mg/kg, iv by HPLC-MS/MS analysis; type: ADME, organism-based; conditions: in vivo, read-out: Vdss
Rattus norvegicus [19] = assay: Clearance in Sprague-Dawley rat at 1 mg/kg, iv by HPLC-MS/MS analysis relative to hepatic blood flow; type: ADME, organism-based; conditions: in vivo
[20] = Oral bioavailability in Sprague-Dawley rat at 3 mg/kg by HPLC-MS/MS analysis; type: ADME, organism-based; conditions: in vivo
[21] = molecular target: T3, Arachidonate 5-lipoxygenase-activating protein (Homo sapiens) (UniProt P20292); assay: Ratio of IC50 for FLAP in calcimycin-stimulated human whole blood to IC50 for displacement of [125I]-L-691831 from human FLAP expressed in Sf9 cell membranes
T3 sequence (whole entry): T2 sequence (P20292 whole entry)

hERG (KCNH2) [22] = molecular target: T1, hERG (KCNH2); assay: Inhibition of human ERG expressed in CHO cells at 12 uM at -70mV holding potential measured after 300 secs by IonWorks electrophysiology method relative to control; type: cell-based; conditions: CHO cells expressing human ERG
hERG (KCNH2) [23] = molecular target: T1, hERG (KCNH2); assay: Inhibition of human ERG expressed in CHO cells at 41 uM at -70mV holding potential measured after 300 secs by IonWorks electrophysiology method relative to control; type: cell-based; conditions: CHO cells expressing human ERG
hERG (KCNH2) [24] = molecular target: T1, hERG (KCNH2); assay: Inhibition of human ERG expressed in CHO cells at 17 uM at -70mV holding potential measured after 300 secs by IonWorks electrophysiology method relative to control; type: cell-based; conditions: CHO cells expressing human ERG
hERG (KCNH2) [25] = molecular target: T1, hERG (KCNH2); assay: Inhibition of human ERG expressed in CHO cells at 33 uM at -70mV holding potential measured after 300 secs by IonWorks electrophysiology method relative to control; type: cell-based; conditions: CHO cells expressing human ERG
hERG (KCNH2) [26] = molecular target: T1, hERG (KCNH2); assay: Inhibition of human ERG expressed in CHO cells at 16 uM at -70mV holding potential measured after 300 secs by IonWorks electrophysiology method relative to control; type: cell-based; conditions: CHO cells expressing human ERG
hERG (KCNH2) [27] = molecular target: T1, hERG (KCNH2); assay: Inhibition of human ERG expressed in CHO cells at 21 uM at -70mV holding potential measured after 300 secs by IonWorks electrophysiology method relative to control; type: cell-based; conditions: CHO cells expressing human ERG
hERG (KCNH2) [28] = molecular target: T1, hERG (KCNH2); assay: Inhibition of human ERG expressed in CHO cells at 9 uM at -70mV holding potential measured after 300 secs by IonWorks electrophysiology method relative to control; type: cell-based; conditions: CHO cells expressing human ERG
hERG (KCNH2) [29] = molecular target: T1, hERG (KCNH2); assay: Inhibition of human ERG expressed in HEK293 cells at 37 uM by whole-cell patch clamp method relative to control; type: cell-based; conditions: HEK293 cells expressing human ERG

T1 sequence (Q12809 whole entry): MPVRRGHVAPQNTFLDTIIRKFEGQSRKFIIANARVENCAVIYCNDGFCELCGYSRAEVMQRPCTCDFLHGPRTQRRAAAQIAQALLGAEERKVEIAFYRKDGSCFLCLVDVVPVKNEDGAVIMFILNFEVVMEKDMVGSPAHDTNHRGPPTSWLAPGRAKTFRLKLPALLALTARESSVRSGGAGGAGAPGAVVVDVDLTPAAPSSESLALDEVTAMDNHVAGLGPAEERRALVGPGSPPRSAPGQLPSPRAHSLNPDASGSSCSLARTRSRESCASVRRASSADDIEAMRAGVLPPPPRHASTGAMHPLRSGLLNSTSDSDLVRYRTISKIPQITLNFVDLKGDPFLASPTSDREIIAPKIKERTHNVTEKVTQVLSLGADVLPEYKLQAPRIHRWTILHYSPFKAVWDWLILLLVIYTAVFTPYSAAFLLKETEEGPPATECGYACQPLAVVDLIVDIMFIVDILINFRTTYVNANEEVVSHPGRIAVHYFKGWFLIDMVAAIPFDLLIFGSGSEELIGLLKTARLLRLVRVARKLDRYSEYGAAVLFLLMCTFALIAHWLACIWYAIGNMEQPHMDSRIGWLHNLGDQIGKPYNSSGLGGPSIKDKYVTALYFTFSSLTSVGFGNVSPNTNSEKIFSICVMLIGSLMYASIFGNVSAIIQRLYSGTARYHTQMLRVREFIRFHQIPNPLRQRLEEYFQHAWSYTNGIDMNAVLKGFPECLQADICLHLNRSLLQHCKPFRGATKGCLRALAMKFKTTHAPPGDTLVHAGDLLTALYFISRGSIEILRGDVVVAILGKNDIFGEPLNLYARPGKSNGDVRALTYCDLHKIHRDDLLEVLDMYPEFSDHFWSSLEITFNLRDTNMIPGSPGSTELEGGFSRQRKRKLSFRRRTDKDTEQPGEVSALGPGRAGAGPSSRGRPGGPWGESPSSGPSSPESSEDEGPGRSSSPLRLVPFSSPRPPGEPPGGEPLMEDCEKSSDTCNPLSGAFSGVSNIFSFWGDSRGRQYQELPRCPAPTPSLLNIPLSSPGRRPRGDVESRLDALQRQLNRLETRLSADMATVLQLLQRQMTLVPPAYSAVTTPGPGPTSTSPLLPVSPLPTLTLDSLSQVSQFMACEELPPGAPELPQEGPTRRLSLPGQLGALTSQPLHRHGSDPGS

SMILES: Nc1ncc(-c2ccc(C3(c4noc(N5CCC(CO)CC5)n4)CCC3)cc2)cn1
- hepatic extraction ratio at 1 h, 1 µM [1]: 0.36
- inhibition at 5 min, 13 µM (hERG (KCNH2) [2]): 68%
- IC50 [3]: 173 nM
- IC50 [4]: 46 nM
- solubility kinetic [5]: 14 µg/mL (≈ 34.4 µM)

SMILES: C[C@@](c1ccc(-c2cnc(N)nc2)cc1)(c1noc(N2CCC(O)CC2)n1)C1CC1
- MRT [6]: 1.6 h
- Vd [7]: 1.6 L/kg
- inhibition at 34 µM (hERG (KCNH2) [8]): 30%
- CL (Rattus norvegicus [9]): 33%
- solubility thermodynamic at 24 h, 1 µM [10]: 111 µg/mL (≈ 273 µM)
- bioavailability [11]: 75%
- inhibition at 5 min, 34 µM (hERG (KCNH2) [12]): 30%

SMILES: Cn1cc(-c2nc([C@@](C)(c3ccc(-c4cnc(N)nc4)nc3)C3CC3)no2)cn1
- hepatic extraction ratio at 1 h, 1 µM [1]: < 0.3
- IC50 [3]: 26 nM
- IC50 [4]: 3 nM
- inhibition at 5 min, 10 µM (hERG (KCNH2) [13]): 13%
- hepatic extraction ratio at 1 h, 1 µM [14]: 0.59

SMILES: CC(C)(O)Cn1cc(-c2nc([C@@](C)(c3ccc(-c4cnc(N)nc4)nc3)C3CC3)no2)cn1
- inhibition at 5 min, 42 µM (hERG (KCNH2) [15]): 34%
- Kinetic_solubility [5]: Soluble
- solubility thermodynamic at 24 h, 1 µM [10]: 26 µg/mL (≈ 58.2 µM)

SMILES: CC(C)[C@](C)(c1ccc(-c2cnc(N)nc2)nc1)c1noc(-c2cnn(C3COC3)c2)n1
- hepatic extraction ratio at 1 h, 1 µM [1]: < 0.3
- IC50 [3]: 37 nM
- IC50 [4]: 6.6 nM
- Kinetic_solubility [5]: Soluble
- solubility thermodynamic at 24 h, 1 µM [10]: 84 µg/mL (≈ 194 µM)
- inhibition at 30 µM (hERG (KCNH2) [16]): 24%
- hepatic extraction ratio at 1 h, 1 µM [14]: 0.34

SMILES: CC(C)[C@](C)(c1ccc(-c2cnc(N)nc2)nc1)c1noc(-c2cnn(CC(C)(C)O)c2)n1
- MRT [17]: 4.6 h
- Vd [18]: 2 L/kg
- hepatic extraction ratio at 1 h, 1 µM [1]: < 0.3
- IC50 [3]: 41 nM
- IC50 [4]: 13 nM
- Kinetic_solubility [5]: Soluble
- solubility thermodynamic at 24 h, 1 µM [10]: 210 µg/mL (≈ 468 µM)
- CL (Rattus norvegicus [19]): 10%
- inhibition at 30 µM (hERG (KCNH2) [16]): 21%
- bioavailability [20]: 114%
- hepatic extraction ratio at 1 h, 1 µM [14]: 0.3

SMILES: Nc1ncc(-c2ccc(C3(c4noc(N5CC(O)C5)n4)CCC3)cc2)cn1
- hepatic extraction ratio at 1 h, 1 µM [1]: < 0.24
- IC50 [3]: 315 nM
- IC50 [4]: 160 nM
- solubility kinetic [5]: > 36 µg/mL
- Ratio IC50 [21]: 2
- inhibition at 5 min, 12 µM (hERG (KCNH2) [22]): 18%

SMILES: C[C@@](c1ccc(-c2cnc(N)nc2)nc1)(c1noc(N2CCC(O)CC2)n1)C1CC1
- inhibition at 5 min, 41 µM (hERG (KCNH2) [23]): 17%
- IC50 [3]: 324 nM
- IC50 [4]: 434 nM

SMILES: Nc1ncc(-c2ccc(C3(c4noc(N5CCC(O)CC5)n4)CCC3)cc2)cn1
- hepatic extraction ratio at 1 h, 1 µM [1]: < 0.24
- IC50 [3]: 118 nM
- inhibition at 5 min, 17 µM (hERG (KCNH2) [24]): 40%
- solubility kinetic [5]: > 39 µg/mL
- Ratio IC50 [21]: 7

SMILES: Nc1ncc(-c2ccc(C3(c4noc(N5CCCCC5)n4)CCC3)cc2)cn1
- IC50 [3]: 387 nM
- solubility kinetic [5]: 4.1 µg/mL (≈ 10.9 µM)
- Ratio IC50 [21]: 59
- inhibition at 5 min, 33 µM (hERG (KCNH2) [25]): 92%

SMILES: CC1(O)CCN(c2nc(C3(c4ccc(-c5cnc(N)nc5)cc4)CCC3)no2)CC1
- hepatic extraction ratio at 1 h, 1 µM [1]: 0.29
- inhibition at 5 min, 16 µM (hERG (KCNH2) [26]): 45%
- IC50 [3]: 87 nM
- IC50 [4]: 17 nM
- solubility kinetic [5]: > 40 µg/mL

SMILES: CC1(O)CCN(c2nc([C@@](C)(c3ccc(-c4cnc(N)nc4)cc3)C3CC3)no2)CC1
- hepatic extraction ratio at 1 h, 1 µM [1]: 0.58
- IC50 [3]: 13 nM
- inhibition at 5 min, 21 µM (hERG (KCNH2) [27]): 31%
- IC50 [4]: 5.6 nM

SMILES: CN(c1cnn(C)c1)c1nc([C@@](C)(c2ccc(-c3cnc(N)nc3)cc2)C2CC2)no1
- hepatic extraction ratio at 1 h, 1 µM [1]: 0.34
- inhibition at 5 min, 9 µM (hERG (KCNH2) [28]): 45%
- IC50 [3]: 92 nM
- IC50 [4]: 29 nM
- Kinetic_solubility [5]: Soluble
- solubility ([10]; buffer, pH 6.8, 24 h, 1 µM): Soluble

SMILES: CC(C)[C@](C)(c1ccc(-c2cnc(N)nc2)nc1)c1noc(-c2cnn(CC#N)c2)n1
- hepatic extraction ratio at 1 h, 1 µM [1]: < 0.24
- IC50 [3]: 40 nM
- IC50 [4]: 23 nM
- inhibition at 37 µM (hERG (KCNH2) [29]): 38%
- hepatic extraction ratio at 1 h, 1 µM [14]: 0.31
